In patent US20220340875A1, “METHODS OF CULTURING AND/OR EXPANDING STEM CELLS AND/OR LINEAGE COMMITTED PROGENITOR CELLS USING AMIDO COMPOUNDS” (IDEAYA BIOSCIENCES, INC., priority 2018, published 2022):

target: T1, hAhR (Homo sapiens, UniProt P35869); assay: AhR DRE-luciferase reporter transcriptional assay, antagonist mode (TCDD-induced); type: cell-based; conditions: HEPG2 DRE-Luc cells, 3 nM TCDD, 24 hour incubation, relative IC50
T1 construct: Stably integrated DRE-luciferase cell lines were generated by transducing the both cell lines with Cignal XRE luciferase reporter (Qiagen) lentiviral particles; endogenous in cells
T1 sequence (P35869 11-848): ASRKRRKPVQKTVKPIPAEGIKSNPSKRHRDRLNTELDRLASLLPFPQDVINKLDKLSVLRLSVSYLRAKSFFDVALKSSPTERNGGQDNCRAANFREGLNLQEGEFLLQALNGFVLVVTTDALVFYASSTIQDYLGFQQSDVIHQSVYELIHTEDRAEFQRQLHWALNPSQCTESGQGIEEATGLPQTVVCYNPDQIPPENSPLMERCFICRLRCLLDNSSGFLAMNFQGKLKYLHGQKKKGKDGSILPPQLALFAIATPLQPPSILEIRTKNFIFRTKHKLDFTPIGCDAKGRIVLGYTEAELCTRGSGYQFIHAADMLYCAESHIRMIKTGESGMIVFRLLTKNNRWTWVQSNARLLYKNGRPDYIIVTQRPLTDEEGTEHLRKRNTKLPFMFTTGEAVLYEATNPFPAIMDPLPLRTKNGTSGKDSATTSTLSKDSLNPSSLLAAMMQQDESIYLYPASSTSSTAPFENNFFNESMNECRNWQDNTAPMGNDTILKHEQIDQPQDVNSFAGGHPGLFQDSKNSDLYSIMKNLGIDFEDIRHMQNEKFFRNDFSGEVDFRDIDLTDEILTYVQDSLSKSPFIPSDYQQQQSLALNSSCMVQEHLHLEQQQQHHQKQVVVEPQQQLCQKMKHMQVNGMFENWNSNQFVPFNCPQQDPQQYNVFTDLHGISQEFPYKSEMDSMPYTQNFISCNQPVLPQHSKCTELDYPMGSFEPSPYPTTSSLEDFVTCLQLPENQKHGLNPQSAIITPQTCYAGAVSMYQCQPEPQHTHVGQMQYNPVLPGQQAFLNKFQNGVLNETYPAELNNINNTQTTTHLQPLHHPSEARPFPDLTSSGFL
Description: HEPG2 and HEPA1C1C7 cells were maintained in MEM and αMEM without nucleosides supplemented with 10% heat inactivated FBS respectively. Stably integrated DRE-luciferase cell lines were generated by transducing the both cell lines with Cignal XRE luciferase reporter (Qiagen) lentiviral particles according to the manufacturer protocol. For both cell lines stably integrated reporter cell lines were selected for the presence of 2 µg/mL puromycin. Following selection of stably integrated cell line pools, clonal cell lines were isolated by limiting dilution in 96-well plates. Transcriptional assays were performed by seeding 100 μL of cells at a density of 250,000 or 100,000 cells/mL, for HEPG2 and HEPA1C1C7 DRE-Luc cells respectively, into 96-well cell culture plates in OptiMEM supplemented with 0.5% heat inactivated FBS and allowed to attach overnight. For modulator assays, the compounds were added in a semi-log dose response using a D300e Digital Dispenser (Tecan) followed normalization with vehicle (DMSO). Immediately following compound addition 10 μL of 2,3,7,8-Tetrachlorodibenzo-p-dioxin (TCDD) was added to the cells to a final concentration of 3 nM or 0.3 nM for the HEPG2 and HEPA1C1C7 DRE-Luc cells respectively. Following 24 hour incubation the medium was removed and the cells were lysed in 25 μL of Reporter Lysis Buffer (Promega). Firefly luciferase activity was measured immediately following the addition of 50 μL Luciferase Assay Reagent (Promega). The percent maximal activity for each point was determined using the following equasion: (RLUsample-RLUvehicle−TCDD)/(RLUvehicle+TCDD RLUvehicle−TCDD)*100. The relative IC50, defined as the compound concentration required to reduce the TCDD induced response between the top and bottom plateau of each individual dose response curve by half, for each compound was determined using Prism 7 (GraphPad Software).

IC50 | SMILES
500 to 1000 nM | Cc1cc(-c2ncc3cc(C(F)(F)F)ccc3n2)ccc1NC(=O)c1ncncc1C [Example 123, 5-methyl-N-(2-methyl-4-(6-(trifluoromethyl)quinazolin-2-yl)phenyl)pyrimidine-4-carboxamide]
1000 to 10000 nM | Cc1cc(-c2ncc3nc(C(F)(F)F)cc(C)c3n2)ccc1N(C)C(=O)c1cc(C(N)=O)nn1CC(N)=O [Example 196, 1-(2-amino-2-oxoethyl)-N5-methyl-N5-(2-methyl-4-(8-methyl-6-(trifluoromethyl)pyrido[3,2-d]pyrimidin-2-yl)phenyl)-1H-pyrazole-3,5-dicarboxamide]
1000 to 10000 nM | Cc1cc(-c2ccc3cnccc3n2)ccc1NC(=O)c1ccnn1C [Example 013, 1-methyl-N-(2-methyl-4-(1,6-naphthyridin-2-yl)phenyl)-1H-pyrazole-5-carboxamide]
< 200 nM | Cc1cc(-c2ncc3cc(C(F)(F)F)ccc3n2)ccc1N(C)C(=O)c1ccnn1CC(N)=O [Example 156, 1-(2-amino-2-oxoethyl)-N-methyl-N-(2-methyl-4-(6-(trifluoromethyl)quinazolin-2-yl)phenyl)-1H-pyrazole-5-carboxamide]
< 200 nM | Cc1cc(-c2ccc3cc(C(F)(F)F)ccc3n2)cc(F)c1N(C)C(=O)c1ccnn1C [Example 007, N-(2-fluoro-6-methyl-4-(6-(trifluoromethyl)quinolin-2-yl)phenyl)-N,1-dimethyl-1H-pyrazole-5-carboxamide]
1000 to 10000 nM | Cc1cc(-c2ccc3cc(C4CC4)ccc3n2)ccc1NC(=O)c1ccnn1C [Example 068, N-(4-(6-cyclopropylquinolin-2-yl)-2-methylphenyl)-1-methyl-1H-pyrazole-5-carboxamide]
1000 to 10000 nM | Cc1cc(-c2ncc3nc(C(F)(F)F)cc(C)c3n2)ccc1N(C)C(=O)c1cc(C(=O)O)nn1CC#N [Example 197, 1-(cyanomethyl)-5-(methyl(2-methyl-4-(8-methyl-6-(trifluoromethyl)-pyrido[3,2-d]pyrimidin-2-yl)phenyl)carbamoyl)-1H-pyrazole-3-carboxylic acid]
200 to 500 nM | Cc1cc(C(=O)N(C)c2ccc(-c3ncc4nc(OC(F)(F)F)cc(C)c4n3)cc2C)ccn1 [Example 161, N,2-dimethyl-N-(2-methyl-4-(8-methyl-6-(trifluoromethoxy)pyrido[3,2-d]pyrimidin-2-yl)phenyl)isonicotinamide]
< 200 nM | Cc1cc(-c2ccc3cc(F)cc(Br)c3n2)ccc1NC(=O)c1ccnn1C [Example 051, N-(4-(8-bromo-6-fluoroquinolin-2-yl)-2-methylphenyl)-1-methyl-1H-pyrazole-5-carboxamide]
500 to 1000 nM | Cc1cc(-c2ccc3cc(F)cc(C4CC4)c3n2)ccc1NC(=O)c1ccnn1C [Example 053, N-(4-(8-cyclopropyl-6-fluoroquinolin-2-yl)-2-methylphenyl)-1-methyl-1H-pyrazole-5-carboxamide]
500 to 1000 nM | Cc1cc(-c2ccc3cc(F)ccc3n2)ccc1NC(=O)c1cocn1 [Example 036, N-(4-(6-fluoroquinolin-2-yl)-2-methylphenyl)oxazole-4-carboxamide]
< 200 nM | Cc1cc(-c2ccc3nc(C(F)(F)F)cc(C)c3n2)ccc1N(C)C(=O)c1ccnn1C [Example 106, N,1-dimethyl-N-(2-methyl-4-(8-methyl-6-(trifluoromethyl)-1,5-naphthyridin-2-yl)phenyl)-1H-pyrazole-5-carboxamide]
< 200 nM | Cc1cc(-c2ncc3cc(C(F)(F)F)cc(C)c3n2)ccc1NC(=O)c1ccnn1C [Example 110, 1-methyl-N-(2-methyl-4-(8-methyl-6-(trifluoromethyl)quinazolin-2-yl)phenyl)-1H-pyrazole-5-carboxamide]
< 200 nM | Cc1cc(-c2ccc3nc(C(F)(F)F)ccc3n2)ccc1N(C)C(=O)c1ccnn1CCO [Example 210, 1-(2-hydroxyethyl)-N-methyl-N-(2-methyl-4-(6-(trifluoromethyl)-1,5-naphthyridin-2-yl)phenyl)-1H-pyrazole-5-carboxamide]
500 to 1000 nM | Cc1cc(-c2cc(C)c3ccccc3n2)ccc1NC(=O)c1ccnn1C [Example 016, 1-Methyl-N-(2-methyl-4-(4-methylquinolin-2-yl)phenyl)-1H-pyrazole-5-carboxamide]
200 to 500 nM | Cc1cc(-c2ncc3nc(C(F)(F)F)cc(C)c3n2)ccc1N(C)C(=O)c1ccnn1CC(C)(C)O [Example 224, 1-(2-hydroxy-2-methylpropyl)-N-methyl-N-(2-methyl-4-(8-methyl-6-(trifluoromethyl)pyrido[3,2-d]pyrimidin-2-yl)phenyl)-1H-pyrazole-5-carboxamide]
200 to 500 nM | COC(=O)Nc1ccc(-c2ccc3cc(F)ccc3n2)cc1C [Example 024, methyl (4-(6-fluoroquinolin-2-yl)-2-methylphenyl)carbamate]
500 to 1000 nM | Cc1cc(-c2ncc3cc(C(F)(F)F)ccc3n2)ccc1N(C)C(=O)OC(C)(C)C [Example 009, tert-butyl methyl(2-methyl-4-(6-(trifluoromethyl)quinazolin-2-yl)phenyl)carbamate]
200 to 500 nM | Cc1cc(-c2nc3ccc(C(F)(F)F)cc3s2)ccc1NC(=O)c1ccnn1C [Example 101, 1-methyl-N-(2-methyl-4-(6-(trifluoromethyl)benzo[d]thiazol-2-yl)phenyl)-1H-pyrazole-5-carboxamide]
< 200 nM | [2H]C([2H])([2H])N(C(=O)c1ccnn1C)c1ccc(-c2ccc3cc(C(F)(F)F)ccc3n2)cc1C [Example 212, 1-methyl-N-(methyl-d3)-N-(2-methyl-4-(6-(trifluoromethyl)quinolin-2-yl)phenyl)-1H-pyrazole-5-carboxamide]
< 200 nM | Cc1c(-c2ncc3cc(C(F)(F)F)ccc3n2)ccc(N(C)C(=O)c2ccnn2C)c1F [Example 114, N-(2-fluoro-3-methyl-4-(6-(trifluoromethyl)quinazolin-2-yl)phenyl)-N,1-dimethyl-1H-pyrazole-5-carboxamide]
1000 to 10000 nM | Cc1c(-c2ccc3cc(C(F)(F)F)ccc3n2)ccc(N(C)C(=O)c2ccnn2C)c1F [Example 006, N-(2-fluoro-3-methyl-4-(6-(trifluoromethyl)quinolin-2-yl)phenyl)-N,1-dimethyl-1H-pyrazole-5-carboxamide]
1000 to 10000 nM | Cc1cc(-c2ccc3cc(F)ccc3n2)ccc1NC(=O)C1CCOCC1 [Example 025, N-(4-(6-fluoroquinolin-2-yl)-2-methylphenyl)tetrahydro-2H-pyran-4-carboxamide]
200 to 500 nM | Cc1cc(-c2ncc3ccn(CC(F)(F)F)c3n2)ccc1NC(=O)c1ccnn1C [Example 091, 1-Methyl-N-(2-methyl-4-(7-(2,2,2-trifluoroethyl)-7H-pyrrolo[2,3-d]pyrimidin-2-yl)phenyl)-1H-pyrazole-5-carboxamide]
1000 to 10000 nM | Cc1cc(NC(=O)c2ccnn2C)ncc1-c1ccc2cc(F)ccc2n1 [Example 043, N-(5-(6-fluoroquinolin-2-yl)-4-methylpyridin-2-yl)-1-methyl-1H-pyrazole-5-carboxamide]
200 to 500 nM | Cc1cc(-c2ccc3cc(OC(F)(F)F)ccc3n2)ccc1N(C)C(=O)c1ccnn1C [Example 010, N,1-dimethyl-N-(2-methyl-4-(6-(trifluoromethoxy)quinolin-2-yl)phenyl)-1H-pyrazole-5-carboxamide]
1000 to 10000 nM | Cn1nccc1C(=O)Nc1ccc(-c2ncc3cc(C(F)(F)F)ccc3n2)cc1 [Example 220, 1-methyl-N-(4-(6-(trifluoromethyl)quinazolin-2-yl)phenyl)-1H-pyrazole-5-carboxamide]
< 200 nM | Cc1cc(-c2ncc3cc(C(F)(F)F)ccc3n2)ccc1N(C)C(=O)c1ccnn1C [Example 140, N,1-Dimethyl-N-(2-methyl-4-(6-(trifluoromethyl)quinazolin-2-yl)phenyl)-1H-pyrazole-5-carboxamide]
